Laboratory results from patent publication US7060678B2, “Peptides comprising furanoid sugar amino acids for the treatment of cancer” (Dabur Research Foundation, priority 2003, dated 2006).
Read-outs that look alike come from different tables or passages of the source. Starred links: 1 amine or outer side, 2 acyl side, 3 side chain; linkers in the order of their positions; H or OH if unused. Non-standard residues stand in square brackets, D forms with d. Residues, ends and D or L forms follow the SMILES beside them. X2 = O=C([C@@H]1CC[C@H](CN[*:1])O1)[*:2]; X1 = O=C(C1CCC(CN[*:1])O1)[*:2]

How the values were obtained:
[1] = system: HeP-2 (larynx); experiment: MTT cytotoxicity assay, HeP-2 cells; assay type: cell-based, human; conditions: 48 hours
From the text: (§1) The following cell lines were used.

[2] = system: ECV-304 (endothelial); conditions: ECV-304 cells, 48 hours, NA = Not Active
From the text: Although sterile phosphate buffered saline was used to prepare each stock solution for the testing described in the following example, other diluents may be used such as buffered saline, isotonic NaCl, Ringer's solution, water, distilled water, polyethylene glycol (neat or in water), Tween in water, dimethylsulfoxide up to 50% in water, propylene glycol (neat or in water), phosphate buffered saline, balanced salt solution, glycerol, and other conventional fluids that are suitable for parentral administration. To obtain a pH in the range of approximately 3.5 to 7.0, for each stock solution, the pH can be adjusted by using 1N HCl for lowering the pH or 1N NaOH for raising the pH, although other buffers such as citrate buffer, phosphate buffer and the like or other conventional agents for adjusting the pH can be used.
The MTT assay is based on the principle of uptake of MTT [3-[4,5-dimethylthiazol-2-yl]-2,5-diphenyl tetrazolium bromide], a tetrazolium salt, by the metabolically active cells where it is metabolized by active mitochondria into a blue colored formazan product which can be read spectrophotometrically. […] The formazan crystals formed inside the cells were dissolved with a detergent comprising of 10% Sodium dodecyl sulfate and 0.01 N HCl and optical density read on a multi-scan ELISA reader. The optical density was directly proportional to the number of proliferating and metabolically active cells. The following cell lines were used. PA1(human ovary), PTC (colon), HeP-2 (larynx), MiaPaCa.2 (human pancreas), KB (oral), ECV-304 (endothelial) and HeP-G2 (liver).

[3] = system: MiaPaCa.2 (human pancreas); experiment: MTT cytotoxicity assay, MiaPaCa.2 cells; assay type: cell-based; conditions: 48 hours
From the text: as §1

[4] = system: PTC (colon); experiment: MTT cytotoxicity assay, PTC cells; assay type: cell-based, human; conditions: 48 hours
From the text: as §1

[5] = system: HeP-G2 (liver); experiment: MTT cytotoxicity assay, HeP-G2 cells; assay type: cell-based, human; conditions: HeP-G2 cells, 48 hours, NA = Not Active
From the text: as §1

[6] = system: KB (oral); experiment: MTT cytotoxicity assay, KB cells; assay type: cell-based, human; conditions: 48 hours
From the text: as §1

[7] = system: PA1 (human ovary); experiment: MTT cytotoxicity assay, PA1 cells; assay type: cell-based; conditions: human, 48 hours
From the text: as §1

[8] = system: human colon adenocarcinoma (PTC) xenografts; experiment: In vivo antitumour activity on primary tumor (colon) xenografted mice; set-up: species or system Balb/c athymic mice; conditions: PTC xenografts in nude mice; intravenously 0.5 mg/Kg. B. Wt twice a day; till day 21
Protocol: The antitumor activity of the peptide (SEQ ID NO: 12) was studied in human colon adenocarcinoma (PTC) xenografts in nude mice. PTC tumor xenografts were grown in Balb/c athymic mice by subcutaneous inoculation of a single cell suspension of PTC cells (15×10^6 cells/100 μL). The tumor bearing animals were divided into 2 groups of five animals each including one group comprising untreated control animals. Treatment with novel peptide was initiated when the average tumor volumes, as measured using a vernier caliper, were between 400–800 mm^3. Solution of SEQ ID NO 12 was prepared at a concentration of 100 μg/ml and intravenously administered to the assigned group of tumor bearing animals at a dose of 0.5 mg/Kg. B. Wt twice a day so that the total dose of 1 mg/Kg. B. Wt was administered to each animal. The treatment was continued for a period of 21 days.
The antitumor activity of the compounds was monitored by measuring tumor volumes every fourth day using the formula W*W*L*0.4 (W=smaller diameter, L=larger diameter). The percentage inhibition of tumor growth was calculated using the formula (1-tumor volume-treated/tumor volume-control)* 100.

In the case of `CSCC[C@H](NC(=O)[C@@H](N)CC(C)C)C(=O)NC[C@H]1CC[C@@H](C(=O)N[C@H](C(=O)N[C@@H](Cc2ccc(O)cc2)C(=O)N[C@@H](CC(C)C)C(=O)N[C@@H](CCCCN)C(=O)O)[C@@H](C)O)O1` [SEQ ID NO: 9, Leu-Met-Saa4-Thr-Tyr-Leu-Lys] (H-LM[X2]TYLK-OH), the “Percent Cytotoxicity” value ([1]; HeP-2 cells, peptide 1 nM, NA = Not Active) is reported as 20.9 ± 2.0%, the “Percent Cytotoxicity” value ([1]; HeP-2 cells, peptide 10 nM, NA = Not Active) is reported as 21.0 ± 1.9% and the “Percent Cytotoxicity” value ([1]; HeP-2 cells, peptide 100 nM, NA = Not Active) is reported as 18.8 ± 1.9%. The “Percent Cytotoxicity” value ([1]; HeP-2 cells, peptide 1 μM, NA = Not Active) was 14.6 ± 1.6%, the “Percent Cytotoxicity” value ([2]; peptide 1 nM) was 12.8 ± 1.4% and the “Percent Cytotoxicity” value ([2]; peptide 10 nM) was 15.8 ± 1.1%. The “Percent Cytotoxicity” value ([2]; peptide 100 nM) was 10.4 ± 2.0%, the “Percent Cytotoxicity” value ([2]; peptide 1 μM) was 7.9 ± 0.4% and the “Percent Cytotoxicity” value ([3]; MiaPaCa.2 cells, peptide 1 nM, NA = Not Active) was 14.8 ± 2.9%. For the same compound, the “Percent Cytotoxicity” value ([3]; MiaPaCa.2 cells, peptide 10 nM, NA = Not Active) was 12.9 ± 1.5%, the “Percent Cytotoxicity” value ([3]; MiaPaCa.2 cells, peptide 100 nM, NA = Not Active) was 9.3 ± 1.1% and the “Percent Cytotoxicity” value ([3]; MiaPaCa.2 cells, peptide 1 μM, NA = Not Active) was 5.9 ± 0.0%. For the same compound, the “Percent Cytotoxicity” value ([4]; PTC cells, peptide 1 nM, NA = Not Active) was 33.5 ± 2.9%, the “Percent Cytotoxicity” value ([4]; PTC cells, peptide 10 nM, NA = Not Active) was 31.9 ± 2.8% and the “Percent Cytotoxicity” value ([4]; PTC cells, peptide 100 nM, NA = Not Active) was 29.5 ± 2.7%. For the same compound, the “Percent Cytotoxicity” value ([4]; PTC cells, peptide 1 μM, NA = Not Active) was 26.0 ± 2.2%, the “Percent Cytotoxicity” value ([5]; peptide 1 nM) was 11.2 ± 1.1% and the “Percent Cytotoxicity” value ([5]; peptide 10 nM) was 10.7 ± 1.1%. The “Percent Cytotoxicity” value ([6]; KB cells, peptide 1 nM, NA = Not Active) was 14.5 ± 1.8%, the “Percent Cytotoxicity” value ([6]; KB cells, peptide 10 nM, NA = Not Active) was 12.5 ± 1.9% and the “Percent Cytotoxicity” value ([6]; KB cells, peptide 100 nM, NA = Not Active) was 10.5 ± 1.2%.

`CSCC[C@H](NC(=O)[C@@H](N)CC(C)C)C(=O)N[C@@H](Cc1ccc(O)cc1)C(=O)NCC1CCC(C(=O)N[C@@H](Cc2ccc(O)cc2)C(=O)N[C@@H](CC(C)C)C(=O)N[C@@H](CCCCN)C(=O)O)O1` (stereo partly drawn) [SEQ ID NO: 12, Leu-Met-Tyr-Saa3-Tyr-Leu-Lys] (H-LMY[X1]YLK-OH) was tested, and the “Percent Cytotoxicity” value ([1]; human, 1 nM) was 21.9 ± 2.9%, the “Percent Cytotoxicity” value ([1]; human, 10 nM) was 39.3 ± 3.2% and the “Percent Cytotoxicity” value ([1]; human, 100 nM) was 32.2 ± 1.9%. For the same compound, the “Percent Cytotoxicity” value ([1]; human, 1 μM) was 28.9 ± 3.2%, the “Percent Cytotoxicity” value ([2]; peptide 1 nM) was 32.0 ± 3.9% and the “Percent Cytotoxicity” value ([2]; peptide 10 nM) was 36.9 ± 3.2%. For the same compound, the “Percent Cytotoxicity” value ([2]; peptide 100 nM) was 27.9 ± 2.9%, the “Percent Cytotoxicity” value ([2]; peptide 1 μM) was 22.2 ± 2.2% and the “Percent Cytotoxicity” value ([3]; human, 1 nM) was 23.8 ± 3.2%. The “Percent Cytotoxicity” value ([3]; human, 10 nM) was 30.6 ± 3.9%, the “Percent Cytotoxicity” value ([3]; human, 100 nM) was 21.9 ± 0.2% and the “Percent Cytotoxicity” value ([3]; human, 1 μM) was 13.9 ± 2.7%. For the same compound, the “Percent Cytotoxicity” value ([4]; human, 1 nM) was 12.7 ± 1.8%, the “Percent Cytotoxicity” value ([4]; human, 10 nM) was 14.8 ± 1.9% and the “Percent Cytotoxicity” value ([4]; human, 100 nM) was 10.8 ± 2.0%. For the same compound, the “Percent Cytotoxicity” value ([6]; human, 1 nM) was 32.9 ± 4.3%, the “Percent Cytotoxicity” value ([6]; human, 10 nM) was 37.4 ± 2.9% and the “Percent Cytotoxicity” value ([6]; human, 100 nM) was 33.2 ± 0.4%. The “Percent Cytotoxicity” value ([6]; human, 1 μM) was 19.9 ± 1.9%, the “Percent Cytotoxicity” value ([7]; 1 nM) was 20.2 ± 2.1% and the “Percent Cytotoxicity” value ([7]; 10 nM) was 24.6 ± 2.7%. The “Percent Cytotoxicity” value ([7]; 100 nM) was 39.3 ± 3.0%, the “Percent Cytotoxicity” value ([7]; 1 μM) was 32.1 ± 2.0% and the “antitumor activity on PTC xenografts (tumor volume kinetics, FIG. 1)” value [8] was “significant antitumor activity”.
